Results on 27 compounds are retold here after patent US7381824B2 (Agouron Pharmaceuticals, Inc., priority 2003, dated 2008).

A word on the Ki: it is the equilibrium dissociation constant of an inhibitor or competing ligand from its target. As usually defined, the IC50 is the concentration needed to halve the response being measured.

A value given as a limit tells only on which side of the number the result lay.

The target of the first assay is T1, human vascular endothelial growth factor receptor 2 (VEGF-R2) (Homo sapiens, UniProt P35968, DEL940-989/E990V).
T1 construct: VEGF-R2D50 contains residues 806-939 and 990-1171; made in house; host or cells: baculovirus/insect cell system
T1 sequence (P35968 with tags, fused parts or gaps DEL940-989/E990V limits assumed): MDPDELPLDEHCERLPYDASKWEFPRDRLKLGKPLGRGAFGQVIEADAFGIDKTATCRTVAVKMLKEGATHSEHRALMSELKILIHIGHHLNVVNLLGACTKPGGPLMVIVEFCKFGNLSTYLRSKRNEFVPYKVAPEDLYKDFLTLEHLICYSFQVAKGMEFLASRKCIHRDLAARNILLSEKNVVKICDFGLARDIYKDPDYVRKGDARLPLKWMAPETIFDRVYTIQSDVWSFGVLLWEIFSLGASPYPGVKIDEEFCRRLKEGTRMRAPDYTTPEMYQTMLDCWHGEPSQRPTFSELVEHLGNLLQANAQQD
Description: VEGF-R2 coupled spectrophotometric assay (FLVK, unphosphorylated VEGF-R2D50). The settings on record: unphosphorylated VEGF-R2D50 (FLVK). The class given is biochemical. From the text: This construct determines the ability of a test compound to inhibit tyrosine kinase activity. A construct (VEGF-R2D50) of the cytosolic domain of human vascular endothelial growth factor receptor 2 (VEGF-R2) lacking the 50 central residues of the 68 residues of the kinase insert domain was expressed in a baculovirus/insect cell system. Of the 1356 residues of full-length VEGF-R2, VEGF-R2D50 contains residues 806-939 and 990-1171, and also one point mutation (E990V) within the kinase insert domain relative to wild-type VEGF-R2. Autophosphorylation of the purified construct was performed by incubation of the enzyme at a concentration of […] in the presence of 3 mM ATP and 40 mM MgCl2 in 100 mM HEPES, pH 7.5, containing 5% glycerol and 5 mM DTT, at 4° C. for 2 h. […] See Parast et al., Biochemistry, 37, 16788-16801 (1998).
VEGF-R2 Assay: Coupled Spectrophotometric (FLVK-P) Assay
The production of ADP from ATP that accompanies phosphoryl transfer was coupled to oxidation of NADH using phosphoenolpyruvate (PEP) and a system having pyruvate kinase (PK) and lactic dehydrogenase (LDH). The oxidation of NADH was monitored by following the decrease of absorbance at 340 nm (e340=6.22 cm^−1 mM^−1) using a Beckman DU 650 spectrophotometer. Assay conditions for phosphorylated VEGF-R2D50 (indicated as FLVK-P in the tables below) were the following: 1 mM PEP; […] NADH; 50 units of LDH/mL; 20 units of PK/mL; 5 mM DTT; 5.1 mM poly(E4Y1); 1 mM ATP; and 25 mM MgCl2 in 200 mM HEPES, pH 7.5. Assay conditions for unphosphorylated VEGF-R2D50 (indicated as FLVK in the tables) were the following: 1 mM PEP; […] NADH; 50 units of LDH/mL; 20 units of PK/mL; 5 mM DTT; 20 mM poly(E4Y1); 3 mM ATP; and 60 mM MgCl2 and 2 mM MnCl2 in 200 mM HEPES, pH 7.5. Assays were initiated with 5 to 40 nM of enzyme. K1 values were determined by measuring enzyme activity in the presence of varying concentrations of test compounds. The percent inhibition at 50 nM (% inhibition @ 50 nM) was determined by linear least-squares regression analysis of absorbance as a function of time. The binding inhibitions were fitted to equation as described by Morrison. The data were analyzed using Enzyme Kinetic and Kaleidagraph software.
Compound `CNC(=O)c1c(C)oc2cc(Oc3ccnc4cc(I)ccc34)ccc12` [Example 6, 6-[(7-iodoquinolin-4-yl)oxy]-N,2-dimethyl-1-benzofuran-3-carboxamide] registered a Ki of 1 to 10 nM.

As to `CNC(=O)c1c(C)oc2cc(Oc3ccnc4cc(-c5cccnc5)ccc34)ccc12` [Example 8, N-2-dimethyl-6-[(7-pyridin-3-ylquinolin-4-yl)oxy]-1-benzofuran-3-carboxamide], the Ki is under 1 nM.

Compound `CNC(=O)c1c(C)oc2cc(Oc3ccnc4cc(-c5ccccn5)ccc34)ccc12` [Example 9, N-2-dimethyl-6-[(7-pyridin-2-ylquinolin-4-yl)oxy]-1-benzofuran-3-carboxamide] showed a Ki of under 1 nM.

The compound `CNC(=O)c1c(C)sc2cc(Oc3ccnc4cc(-c5ccncc5)ccc34)ccc12` [Example 10, N-2-dimethyl-6-[(7-pyridin-4-ylquinolin-4-yl]oxy]-1-benzothiophene-3-carboxamide] returned a Ki of 1 to 10 nM.

With `CNC(=O)n1c(C)cc2cc(Nc3ccnc4cc(-c5ccncc5)ccc34)ccc21` [Example 11, N-2-dimethyl-5-[(7-pyridin-4-ylquinolin-4-yl]amino]-1H-indole-1-carboxamide], the Ki lay in the range of 1 to 10 nM.

For the compound `CCN(CC)CCOc1ccc2c(Oc3ccc4c(C(=O)NC5CC5)c(C)oc4c3)ccnc2c1` [Example 91, N-cyclopropyl-2-methyl-6-({7-[2-(diethylamino)ethoxy]quinolin-4-yl}oxy)-1-benzofuran-3-carboxamide], the Ki is under 1 nM.

As to `Cc1oc2cc(Oc3ccnc4cc(OCCO)ccc34)ccc2c1C(=O)NC1CC1` [Example 92, N-cyclopropyl-2-methyl-6-({7-[2-hydroxy-ethoxy]quinolin-4-yl}oxy)-1-benzofuran-3-carboxamide], the Ki is under 1 nM.

Regarding `Cc1oc2cc(Oc3ccnc4cc(OCCBr)ccc34)ccc2c1C(=O)NC1CC1` [Example 93, 6-{[7-(2-bromoethoxy)quinolin-4-yl]oxy}-N-cyclopropyl-2-methyl-1-benzofuran-3-carboxamide], the Ki is under 1 nM.

`CCN1CCN(CCOc2ccc3c(Oc4ccc5c(C(=O)NC6CC6)c(C)oc5c4)ccnc3c2)CC1` [Example 94, N-cyclopropyl-2-methyl-6-{7-[2-(4-ethyl-piperazin-1-yl)-ethoxy]quinolin-4-yloxy}-1-benzofuran-3-carboxamide] showed a Ki of under 1 nM.

Turning to `Cc1oc2cc(Oc3ccnc4cc(OCCNC(C)C)ccc34)ccc2c1C(=O)NC1CC1` [Example 95, N-cyclopropyl-6-({7-[2-(isopropylamino)ethoxy]quinolin-4-yl}oxy)-2-methyl-1-benzofuran-3-carboxamide], the Ki is under 1 nM.

Turning to `Cc1oc2cc(Oc3ccnc4cc(OCCNC5CC5)ccc34)ccc2c1C(=O)NC1CC1` [Example 96, N-cyclopropyl-6-({7-[2-(cyclopropylamino)ethoxy]quinolin-4-yl}oxy)-2-methyl-1-benzofuran-3-carboxamide], the Ki was under 1 nM.

`COCC(C)NCCOc1ccc2c(Oc3ccc4c(C(=O)NC5CC5)c(C)oc4c3)ccnc2c1` (centres unmarked) [Example 97, N-cyclopropyl-6-[(7-{2-[(2-methoxy-1-methylethyl)amino]ethoxy}quinolin-4-yl)oxy]-2-methyl-1-benzofuran-3-carboxamide]: the Ki was under 1 nM.

Consider `Cc1oc2cc(Oc3ccnc4cc(OCCNC(C)(C)C)ccc34)ccc2c1C(=O)NC1CC1` [Example 98], for which the Ki was under 1 nM.

A further assay relates to human umbilical vein endothelial cells (HUVEC). Description: HUVEC+VEGF proliferation assay. Format: cell-based. The settings on record: Homo sapiens; VEGF-stimulated HUVEC proliferation, MTT, 72 hours. How it is done:
HUVEC+VEGF Proliferation Assay
This assay determines the ability of a test compound to inhibit the growth factor-stimulated proliferation of human umbilical vein endothelial cells (“HUVEC”). HUVEC cells (passage 3-4, Clonetics, Corp.) were thawed into EGM2 culture medium (Clonetics Corp) in T75 flasks. Fresh EGM2 medium was added to the flasks 24 hours later. Four or five days later, cells were exposed to another culture medium (F12K medium supplemented with 10% fetal bovine serum (FBS), […] endothelial cell growth supplement (ECGS), and 0.1 mg/mL heparin). Exponentially-growing HUVEC cells were used in experiments thereafter. Ten to twelve thousand HUVEC cells were plated in 96-well dishes in […] of rich, culture medium (described above). The cells were allowed to attach for 24 hours in this medium. The medium was then removed by aspiration and […] of starvation media (F12K+1% FBS) was added to each well. After 24 hours, […] of test agent dissolved in 1% DMSO in starvation medium or this vehicle alone was added into each treatment well; the final DMSO concentration was 0.1%. One hour later, […] of VEGF (30 ng/mL) in starvation media was added to all wells except those containing untreated controls; the final VEGF concentration was 6 ng/mL. Cellular proliferation was quantified 72 hours later by MTT dye reduction, at which time cells were exposed for 4 hours MTT (Promega Corp.). Dye reduction was stopped by addition of a stop solution (Promega Corp.) and absorbance at 595 nm was determined on a 96-well spectrophotometer plate reader.
With `CNC(=O)c1c(C)oc2cc(Oc3ccnc4cc(I)ccc34)ccc12` [Example 6, 6-[(7-iodoquinolin-4-yl)oxy]-N,2-dimethyl-1-benzofuran-3-carboxamide], the IC50 lay within 1 to 10 nM.

`CNC(=O)c1c(C)oc2cc(Oc3ccnc4cc(-c5cccnc5)ccc34)ccc12` [Example 8, N-2-dimethyl-6-[(7-pyridin-3-ylquinolin-4-yl)oxy]-1-benzofuran-3-carboxamide]: the IC50 is under 1 nM.

For the compound `CNC(=O)c1c(C)oc2cc(Oc3ccnc4cc(-c5ccccn5)ccc34)ccc12` [Example 9, N-2-dimethyl-6-[(7-pyridin-2-ylquinolin-4-yl)oxy]-1-benzofuran-3-carboxamide], the IC50 was 1 to 10 nM.

In the case of `CNC(=O)c1c(C)sc2cc(Oc3ccnc4cc(-c5ccncc5)ccc34)ccc12` [Example 10, N-2-dimethyl-6-[(7-pyridin-4-ylquinolin-4-yl]oxy]-1-benzothiophene-3-carboxamide], the IC50 was in the range of 1 to 10 nM.

As to `CNC(=O)n1c(C)cc2cc(Nc3ccnc4cc(-c5ccncc5)ccc34)ccc21` [Example 11, N-2-dimethyl-5-[(7-pyridin-4-ylquinolin-4-yl]amino]-1H-indole-1-carboxamide], the IC50 is under 1 nM.

Regarding `CNC(=O)c1c(C)oc2cc(Oc3ccnc4cc(O)ccc34)ccc12` [Example 28, 6-[(7-hydroxyquinoline-4-yl)oxy]-N,2-dimethyl-1-benzofuran-3-carboxamide], the IC50 fell in the range of 1 to 10 nM.

For the compound `CNC(=O)n1c(C)cc2cc(Nc3ccnc4cc(-c5ccccn5)ccc34)ccc21` [Example 32], the IC50 is 1 to 10 nM.

As for `CNC(=O)c1c(C)oc2cc(Oc3ccnc4cc(OCCN5CCCC5)ccc34)ccc12` [Example 35, N,2-dimethyl-6-{[7-(2-pyrrolidin-1-ylethoxy)quinolin-4-yl]oxy}-1-benzofuran-3-carboxamide], the IC50 is under 1 nM.

Take `CCCCNC(=O)c1c(C)oc2cc(Oc3ccnc4cc(OC)ccc34)ccc12` [Example 39, N-butyl-6-[(7-methoxyquinolin-4-yl)oxy]-2-methyl-1-benzofuran-3-carboxamide]: the IC50 was under 1 nM.

For the compound `COc1ccc2c(Oc3ccc4c(C(=O)Nc5ccccn5)c(C)oc4c3)ccnc2c1` [Example 40, 6-[(7-methoxyquinolin-4-yl)oxy]-2-methyl-N-pyridin-2-yl-1-benzofuran-3-carboxamide], the concentration for half-maximal inhibition (IC50) is under 1 nM.

As to `CCCCNC(=O)c1c(C)oc2cc(Oc3ccnc4cc(O)ccc34)ccc12` [Example 41, N-butyl-6-[(7-hydroxyquinolin-4-yl)oxy]-2-methyl-1-benzofuran-3-carboxamide], the IC50 was 1 to 10 nM.

Regarding `C=CCOc1ccc2c(Oc3ccc4c(C(=O)NC)c(C)oc4c3)ccnc2c1` [Example 42, 6-{[7-(allyloxy)quinolin-4-yl]oxy}-N,2-dimethyl-1-benzofuran-3-carboxamide], the half-inhibitory concentration (IC50) is under 1 nM.

As for `COc1ccc2c(Oc3ccc4c(C(=O)NC(C)C)c(C)oc4c3)ccnc2c1` [Example 43, N-isopropyl-6-[(7-methoxyquinolin-4-yl)oxy]-2-methyl-1-benzofuran-3-carboxamide], the IC50 was 1 to 10 nM.

`COc1ccc2c(Oc3ccc4c(C(=O)NCCCN5CCOCC5)c(C)sc4c3)ccnc2c1` [Example 62, 6-[(7-methoxyquinolin-4-yl)oxy]-2-methyl-N-(3-morpholin-4-ylpropyl)-1-benzothiophene-3-carboxamide]: the IC50 was over 10 nM.

In the case of `COc1ccc2c(Oc3ccc4c(C(=O)NC5CC5)c(C)oc4c3)ccnc2c1` [Example 63, N-cyclopropyl-6-[(7-methoxyquinolin-4-yl)oxy]-2-methyl-1-benzofuran-3-carboxamide], the IC50 was under 1 nM.

Turning to `COc1ccc2c(Oc3ccc4c(C(=O)NCCCN5CCOCC5)c(C)oc4c3)ccnc2c1` [Example 64, 6-[(7-methoxyquinolin-4-yl)oxy]-2-methyl-N-(3-morpholin-4-ylpropyl)-1-benzofuran-3-carboxamide], the IC50 was 1 to 10 nM.

For `Cc1oc2cc(Oc3ccnc4cc(OCCNC5CCC5)ccc34)ccc2c1C(=O)NC1CC1` [Example 100], the IC50 was in the range of 1 to 10 nM.

In the case of `COc1ccc2c(Oc3ccc4c(C(=O)Nc5cc(C)cc(C)n5)c(C)oc4c3)ccnc2c1` [Example 108, N-(4,6-dimethylpyridin-2-yl)-6-[(7-methoxyquinolin-4-yl)oxy]-2-methyl-1-benzofuran-3-carboxamide], the IC50 was in the range of 1 to 10 nM.

On to `Cc1cc(C)nc(NC(=O)c2c(C)oc3cc(Oc4ccnc5cc(O)ccc45)ccc23)c1` [Example 109, N-(4,6-dimethylpyridin-2-yl)-6-[(7-hydroxyquinolin-4-yl)oxy]-2-methyl-1-benzofuran-3-carboxamide], for which the IC50 was over 10 nM.
